Results on four compounds are retold here after PMC5340622 (Cancer discovery, 2016).

Each structure is given as a SMILES string.

The test system of series [1] is WT and mutant cell lines (MCF7). The experiment in a line: Proliferation of WT and mutant ER MCF7 cell lines with other SERDs. Format: cell-based. The conditions noted are these: WT and all mutant cell lines.
Series [2] has as its system MCF7 inducible HA-ER E380Q tumors. The series is described as follows: MCF7 inducible HA-ER E380Q xenograft. Format: in vivo, mice. The conditions noted are these: fulvestrant 200mg/kg twice weekly s.c.
A further series in a line: in vivo. The settings on record: mouse, serum, other: AZD9496 oral (gavage); fulvestrant subcutaneous.
Another series has as its system MCF7 WT cells. The series is described as follows: Proliferation assay. Format: cell-based. The settings on record: Homo sapiens, MCF7, read-out: IC50, growth inhibition.
For series [3], the system named is MCF7 inducible HA-ER S463P tumors. The series is described as follows: MCF7 inducible HA-ER S463P xenograft. It counts as in vivo, mice. The settings on record: fulvestrant 200mg/kg twice weekly s.c.
In series [4] the test system is MCF7 inducible HA-ER WT tumors. The series is described as follows: MCF7 inducible HA-ER WT xenograft. It counts as in vivo, mice. The settings on record: fulvestrant 200mg/kg twice weekly s.c.
A further series has as its system S463P mutant ER. The experiment in a line: ERE-luciferase inhibition, doxycycline-induced S463P ER in MCF7 cells. The conditions noted are these: MCF7, regular medium. It counts as cell-based.
Another series concerns E380Q mutant ER. The experiment in a line: ERE-luciferase inhibition, doxycycline-induced E380Q ER in MCF7 cells. It counts as cell-based. The conditions noted are these: MCF7, regular medium.

On to `C[C@]12C[C@H](c3ccc(OCCCCCS(=O)(=O)CCCC(F)(F)C(F)(F)F)cc3)[C@@H]3c4ccc(O)cc4CC[C@H]3[C@@H]1CC[C@@H]2O` [RU58668], for which the “inhibition of cell proliferation” value in series [1] is on record as “capable of inhibiting cell proliferation by all mutants”.
One may read the AUC as concentration integrated over time. A low value points to less exposure. As usually defined, the Cmax is the highest concentration seen after dosing. Usually IC50 stands for the concentration that inhibits the measured activity by half. As for `C[C@]12CC[C@@H]3c4ccc(O)cc4C[C@@H](CCCCCCCCC[S+]([O-])CCCC(F)(F)C(F)(F)F)[C@H]3[C@@H]1CC[C@@H]2O` (some centres unmarked) [fulvestrant], the tumor growth inhibition entry in series [2], in series [3] and in series [4] was “fully inhibited the growth” throughout. The compound also had an AUC in the series “in vivo” of 5.29 µM·h. This compound had a Cmax in the series “in vivo” of 0.65 µM. Besides, the IC50 with MCF7 WT cells was 400 pM. In addition, the “fold higher IC99 as compared to WT” value in the series on S463P mutant ER and in the series on E380Q mutant ER was 2 fold in each case.
Take `CC/C(=C(/c1ccc(/C=C/C(=O)O)cc1)c1ccc2[nH]ncc2c1)c1ccc(F)cc1Cl` [GDC-0810]: the “inhibition of cell proliferation” value in series [1] is “capable of inhibiting cell proliferation by all mutants”.
In “in vivo”, `C[C@@H]1Cc2c([nH]c3ccccc23)[C@@H](c2c(F)cc(/C=C/C(=O)O)cc2F)N1CC(C)(C)F` [AZD9496, (E)-3-(3,5-Difluoro-4-((1R,3R)-2-(2-fluoro-2-methylpropyl)-3-methyl-2,3,4,9-tetra hydro-1H–pyrido[3,4-b]indol-1-yl)phenyl)acrylic Acid] displayed an AUC of 218 µM·h and a Cmax of 59 µM. Further, the IC50 in the series with MCF7 WT cells was determined as 400 pM. Further, the “inhibition of cell proliferation” value in series [1] is “capable of inhibiting cell proliferation by all mutants”.
